Measured values reported in patent publication US11401247B2, “Thiazole-5-carboxylic acid derivative and preparation method and use thereof” (XIANGBEI WELMAN PHARMACEUTICAL CO., LTD, priority 2018, dated 2022).

Columns and labels:
hyperuricemia rats [1] = test: dose-effect relationship study in rat hyperuricemia model; assay type: in vivo, SD rats; details: 3 h after first administration, model group 226.2 ± 35.2, blank 37.4 ± 5.1
Experimental: In order to further study the pharmacological activity of the compounds of the present disclosure, as well as the relationship between the activity and the dose, this example selected several compounds of the present disclosure to conduct a dose-effect relationship study in a rat model, in which exogenous uric acid was administered and uric acid decomposition was inhibited simultaneously. A positive drug was used as a control.
1. Experimental animals: Male SPF grade SD rats weighing 110-150 grams. […] The animals were free to drink and eat. All cages were sterilized at 121° C., feed was sterilized by irradiation, and water was sterilized purified water.
2. Experimental drugs: F-1C, F-2C, F-3A, 1.0 g for each compound; febuxostat (positive drug) 1.0 g; febuxostat ethyl ester (ethyl 2-[3-cyano-4-isobutoxyphenyl]-4-methylthiazole-5-carboxylate) 1.0 g;
3.1 Formulation of F-1C, F-2C, F-3A: Tor each of the compounds, take 100 mg, add 20 ml of 0.5% sodium carboxymethyl cellulose and grind, and then dilute to 100 ml.
3.2 Take 100 mg of febuxostat, add 20 ml of 0.5% sodium carboxymethyl cellulose and grind, and then dilute to 100 ml.
Except the blank group, the rest rats were modeled for 15 days and then their serum uric acid levels were detected. The rats were equally divided into several groups according to the detected uric acid levels thereof.
F-1C, F-2C and F-3A groups: each compound was taken orally at 3 doses, i.e., 2.5, 5 and 10 mg/kg; QD; and 10 animals for each dose group.
Febuxostat group: oral administration of 10 mg/kg, QD, and 10 animals.
Febuxostat ethyl ester group: oral administration of 10 mg/kg, QD, and 10 animals.
The blank group was not administrated with any drug. Each of the rest groups was orally administrated with oteracil potassium 1 g/kg and uric acid 0.3 g/kg and intraperitoneally injected with 0.1 g/kg uric acid (dissolved in 0.5% sodium carboxymethyl cellulose), once a day on schedule, for 15 days. 0.5 ml of blood samples was drawn from orbit before the experiment and […] after the modelling, respectively, to separated serum for determining serum uric acid levels.
After successful modeling, the rats were equally divided into several groups according to the serum uric acid values thereof, and then were intragastrically administrated with the test drugs. Three hours after the first administration, 0.5 ml of orbital venous blood was drawn from the orbit of the rats, centrifuged at 3000 RPM for 15 min, to obtain for determining the serum uric acid level of each rat.
Data were expressed by mean±standard deviation (′x±SD), and analyzed by Excel 7.0 and SPPS 13.0 for Windows software. Q-test was used for the comparison between groups, and the self-paired t-test was used for the comparison of a group before and after administration. It indicated significant difference when P<0.05.

in vivo = details: mouse, po
hyperuricemia rats [2] = test: pharmacodynamic screening in rat hyperuricemia model (exogenous uric acid administered, uric acid decomposition inhibited); assay type: in vivo, SD rats

Compound: Cc1nc(-c2ccc(OCC(C)C)c(C#N)c2)sc1C(=O)OCCN(C)CCO [Compound F-3A]
- Serum uric acid content, Value after 3 h of drug administration (hyperuricemia rats [1]; 2.5 mg/kg oral): 173.4 ± 32.7^a3, b3 μmol/L
- Serum uric acid content, Value after 3 h of drug administration (hyperuricemia rats [1]; 5 mg/kg oral): 137.6 ± 24.3^a3, b3 μmol/L
- Serum uric acid content, Value after 3 h of drug administration (hyperuricemia rats [1]; 10 mg/kg oral): 82.3 ± 16.8^a3, b3, c3 μmol/L
- LD50 at 14 days (in vivo): 3000 mg/kg
- LD50 at 14 days (in vivo; 3000 mg/kg): ≥ 3000 mg/kg
- Serum uric acid level, Value after 3 h of drug administration (hyperuricemia rats [2]; 10 mg/kg oral, 3 h after first administration, model group 174.4 ± 39.9, blank 53.9 ± 12.8): 64.1 ± 16.1^a3b3 μmol/L
- uric acid-lowering effect (in words) (hyperuricemia rats [2]; 3 h after drug administration, F compounds 10 mg/kg, febuxostat and ethyl ester 14 mg/kg oral): very obvious uric acid-lowering effects
- p, uric acid level 3 h after drug administration compared with the blank group (hyperuricemia rats [2]; F compounds 10 mg/kg, febuxostat 14 mg/kg oral): no significant difference
- Autopsy results of survival animals (ICR mice; formal test, 3000 mg/kg ig): No obvious abnormalities were observed in the organs
- animal deaths within 24 hours from the administration (ICR mice; formal test, all dose groups, febuxostat high-dose group): no animal deaths were observed
- Abnormal reactions within 12 hours from ig administration (ICR mice; formal test, F compounds 3000 mg/kg, febuxostat high-dose group): no abnormalities were observed
- Number of dead animals (ICR mice; ig 3000 mg/kg, 10 mice): 0
- death, preliminary experiments (ICR mice; mice, intragastric 1600 mg/kg): no animal died
- toxic reactions, preliminary experiments (ICR mice; mice, intragastric 1600 mg/kg): no obvious toxicity symptom was observed
